From US20160228420A1, “POLYETHYLENE GLYCOL-CONTAINING COMPOSITION” (SANTEN PHARMACEUTICAL CO., LTD., priority 2013, published 2016)

Key:
[1] = test system: VEGF induced retinal vascular permeability promotion; assay: VEGF induced rabbit retinal vascular permeability promotion model; assay type: in vivo; conditions: 0.5 mg/eye intravitreal in PEG 400; VEGF 2 months after administration; vitreous fluorescein 2 days after VEGF
Method: By using the VEGF induced rabbit retinal vascular permeability promotion model, usefulness of the polyethylene glycol 400 formulation of Compound A was evaluated. Incidentally, the VEGF has been reported to promote retinochoroidal vascular permeability by intravitreal administration (Invest Ophthalmol Vis Sci. 2013; 54(1):503-11.), and has generally been used for preparation of a pathological condition accompanied by retinal and choroidal vascular disorder (for example, diabetic retinopathy, diabetic macular edema, retinal vein occlusion, retinal artery occlusion, exudative age-related macular degeneration, etc.).
To 1.5 g of the present compound A was added 12 mL of polyethylene glycol 400 (NOF CORPORATION) and the mixture was stirred, and after confirming the dissolution thereof, a suitable amount of polyethylene glycol 400 was added to make the whole amount 15 mL. […]
After 2 days from the VEGF administration, 0.1 mL/kg of a 10% fluorescein solution was intravenously administered to rabbits. After 2 hours from administration of the fluorescein, the fluorescein concentration in the vitreous body was measured by fluorophotometry, and this was used as an index of the retinal vascular permeability.
Thereafter, according to Formula 1, an inhibition ratio (%) of the administered medicine to the retinal vascular permeability promotion caused by VEGF was calculated. […]

[2] = repeated oral administration; disclosed in Patent Document 2; cited from earlier work
[3] = disclosed in Patent Document 2; cited from earlier work

Structure (SMILES) | Inhibition ratio (%) (retinal vascular permeability) [1] | deposition of minerals in the stomach [2] | storage stability [3]
O=C(CO)Nc1cc(CSc2ncccc2C(=O)Nc2ccc(OC(F)(F)F)cc2)ccn1 [Compound A, 2-[[[2-[(hydroxyacetyl)amino]-4-pyridinyl]methyl]thio]-N-[4-(trifluoromethoxy)phenyl]-3-pyridinecaboxamide] | 95.3% | – | –
O=C(CO)Nc1cc(CSc2ncccc2C(=O)Nc2ccc(OC(F)(F)F)cc2)ccn1.O=S(=O)(O)c1ccccc1 [2-[[[2-[(hydroxyacetyl)amino]-4-pyridinyl]methyl]thio]-N-[4-(trifluoromethoxy)phenyl]-3-pyridinecaboxamide] | – | no deposition of minerals is recognized | excellent
